According to ChEMBL document CHEMBL4507301 (2021):

Assays:
Conditions in all cases: Compound concentration 1000.0 nM
[1] = target: Myosin light chain kinase (Homo sapiens) (UniProt Q32MK0)
[2] = target: Mitogen-activated protein kinase kinase kinase 13 (Homo sapiens) (UniProt O43283)
[3] = target: Serine/threonine-protein kinase ULK3 (Homo sapiens) (UniProt Q6PHR2)
[4] = target: Tyrosine-protein kinase Srms (Homo sapiens) (UniProt Q9H3Y6)
[5] = target: Aurora kinase C (Homo sapiens) (UniProt Q9UQB9)
[6] = target: Ribosomal protein S6 kinase alpha-3 (Homo sapiens) (UniProt P51812)
[7] = target: STE20-like serine/threonine-protein kinase (Homo sapiens) (UniProt Q9H2G2)
[8] = target: Cyclin-dependent kinase 17 (Homo sapiens) (UniProt Q00537)
[9] = target: Calcium/calmodulin-dependent protein kinase type 1B (Homo sapiens) (UniProt Q6P2M8)
[10] = target: Serine/threonine-protein kinase ICK (Homo sapiens) (UniProt Q9UPZ9)
[11] = test system: Tyrosine-protein kinase ABL1 (Homo sapiens), P00519 [E255K]
[12] = target: Dual specificity protein kinase CLK1 (Homo sapiens) (UniProt P49759)
[13] = target: Receptor tyrosine-protein kinase erbB-3 (Homo sapiens) (UniProt P21860)
[14] = target: Mitogen-activated protein kinase kinase kinase 15 (Homo sapiens) (UniProt Q6ZN16)
[15] = target: Misshapen-like kinase 1 (Homo sapiens) (UniProt Q8N4C8)
[16] = target: Ribosomal protein S6 kinase alpha-1 (Homo sapiens) (UniProt Q15418)
[17] = target: Dual specificity tyrosine-phosphorylation-regulated kinase 1B (Homo sapiens) (UniProt Q9Y463)
[18] = target: Ephrin type-B receptor 4 (Homo sapiens) (UniProt P54760)
[19] = target: Serine/threonine-protein kinase N2 (Homo sapiens) (UniProt Q16513)
[20] = target: Serine/threonine-protein kinase RIO3 (Homo sapiens) (UniProt O14730)
[21] = target: Serine/threonine-protein kinase 3 (Homo sapiens) (UniProt Q13188)
[22] = target: Tyrosine-protein kinase CSK (Homo sapiens) (UniProt P41240)
[23] = target: Phosphatidylinositol 5-phosphate 4-kinase type-2 beta (Homo sapiens) (UniProt P78356)
[24] = target: Dual specificity mitogen-activated protein kinase kinase 1 (Homo sapiens) (UniProt Q02750)
[25] = target: Dual specificity tyrosine-phosphorylation-regulated kinase 1A (Homo sapiens) (UniProt Q13627)
[26] = target: cAMP-dependent protein kinase catalytic subunit alpha (Homo sapiens) (UniProt P17612)
[27] = target: Ephrin type-A receptor 4 (Homo sapiens) (UniProt P54764)
[28] = test system: Hepatocyte growth factor receptor (Homo sapiens), P08581 [M1250T]
[29] = target: Cyclin-dependent kinase 4 (Homo sapiens) (UniProt P11802)
[30] = target: Fibroblast growth factor receptor 2 (Homo sapiens) (UniProt P21802)
[31] = target: Inhibitor of nuclear factor kappa-B kinase subunit beta (Homo sapiens) (UniProt O14920)
[32] = target: cGMP-dependent protein kinase 2 (Homo sapiens) (UniProt Q13237)
[33] = target: Cyclin-dependent kinase-like 3 (Homo sapiens) (UniProt Q8IVW4)
[34] = target: Serine/threonine-protein kinase TAO3 (Homo sapiens) (UniProt Q9H2K8)
[35] = target: Cyclin-dependent kinase 9 (Homo sapiens) (UniProt P50750)
[36] = target: Serine/threonine-protein kinase PAK 5 (Homo sapiens) (UniProt Q9P286)
[37] = target: Serine/threonine-protein kinase PLK1 (Homo sapiens) (UniProt P53350)
[38] = test system: Tyrosine-protein kinase ABL1 (Homo sapiens), P00519 [F317I]
[39] = target: Serine/threonine-protein kinase TAO2 (Homo sapiens) (UniProt Q9UL54)
[40] = target: Serine/threonine-protein kinase/endoribonuclease IRE1 (Homo sapiens) (UniProt O75460)
[41] = target: NT-3 growth factor receptor (Homo sapiens) (UniProt Q16288)
[42] = test system: Receptor-type tyrosine-protein kinase FLT3 (Homo sapiens), P36888 [D835Y]
[43] = test system: Receptor-type tyrosine-protein kinase FLT3 (Homo sapiens), P36888 [D835V]
[44] = target: Serine/threonine-protein kinase RIO2 (Homo sapiens) (UniProt Q9BVS4)
[45] = target: Proto-oncogene tyrosine-protein kinase receptor Ret (Homo sapiens) (UniProt P07949)

Sequence of Cyclin-dependent kinase 9 (Homo sapiens) (P50750 whole entry): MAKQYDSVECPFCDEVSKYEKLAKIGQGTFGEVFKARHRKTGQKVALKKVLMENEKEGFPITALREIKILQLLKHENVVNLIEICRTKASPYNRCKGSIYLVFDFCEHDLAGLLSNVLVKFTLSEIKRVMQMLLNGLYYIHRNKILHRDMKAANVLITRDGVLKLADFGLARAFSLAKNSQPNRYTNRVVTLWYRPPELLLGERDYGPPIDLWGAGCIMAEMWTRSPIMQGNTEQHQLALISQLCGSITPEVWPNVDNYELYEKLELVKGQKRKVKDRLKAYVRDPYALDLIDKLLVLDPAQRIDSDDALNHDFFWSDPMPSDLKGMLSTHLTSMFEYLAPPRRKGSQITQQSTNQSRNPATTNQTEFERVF
Sequence of Cyclin-dependent kinase 4 (Homo sapiens) (P11802 whole entry): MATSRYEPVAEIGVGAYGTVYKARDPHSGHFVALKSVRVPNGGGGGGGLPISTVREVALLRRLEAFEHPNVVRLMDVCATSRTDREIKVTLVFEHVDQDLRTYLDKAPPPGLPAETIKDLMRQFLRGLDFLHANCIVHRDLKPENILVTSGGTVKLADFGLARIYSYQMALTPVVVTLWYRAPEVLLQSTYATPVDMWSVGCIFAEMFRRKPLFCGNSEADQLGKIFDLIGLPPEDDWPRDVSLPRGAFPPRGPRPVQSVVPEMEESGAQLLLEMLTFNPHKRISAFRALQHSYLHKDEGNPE
Sequence of Dual specificity tyrosine-phosphorylation-regulated kinase 1B (Homo sapiens) (Q9Y463 whole entry, looked up): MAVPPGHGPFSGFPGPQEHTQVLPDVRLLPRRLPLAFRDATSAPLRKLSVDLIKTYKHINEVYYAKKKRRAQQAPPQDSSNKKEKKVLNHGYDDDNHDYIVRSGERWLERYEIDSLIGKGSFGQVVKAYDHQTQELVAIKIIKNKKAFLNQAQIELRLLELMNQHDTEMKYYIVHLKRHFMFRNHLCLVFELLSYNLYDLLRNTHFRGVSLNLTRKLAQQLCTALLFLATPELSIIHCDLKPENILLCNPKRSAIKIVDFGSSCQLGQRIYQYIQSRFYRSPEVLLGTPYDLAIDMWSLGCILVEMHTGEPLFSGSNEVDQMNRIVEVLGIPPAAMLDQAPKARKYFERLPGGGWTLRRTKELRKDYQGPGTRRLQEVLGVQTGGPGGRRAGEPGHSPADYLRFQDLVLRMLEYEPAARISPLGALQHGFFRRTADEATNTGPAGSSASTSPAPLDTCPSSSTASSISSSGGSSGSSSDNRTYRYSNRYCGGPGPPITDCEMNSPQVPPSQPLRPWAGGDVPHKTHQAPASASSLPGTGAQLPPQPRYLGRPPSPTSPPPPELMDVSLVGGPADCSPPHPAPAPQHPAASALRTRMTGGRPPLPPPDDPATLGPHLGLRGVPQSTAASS
Sequence of Ribosomal protein S6 kinase alpha-3 (Homo sapiens) (P51812 whole entry): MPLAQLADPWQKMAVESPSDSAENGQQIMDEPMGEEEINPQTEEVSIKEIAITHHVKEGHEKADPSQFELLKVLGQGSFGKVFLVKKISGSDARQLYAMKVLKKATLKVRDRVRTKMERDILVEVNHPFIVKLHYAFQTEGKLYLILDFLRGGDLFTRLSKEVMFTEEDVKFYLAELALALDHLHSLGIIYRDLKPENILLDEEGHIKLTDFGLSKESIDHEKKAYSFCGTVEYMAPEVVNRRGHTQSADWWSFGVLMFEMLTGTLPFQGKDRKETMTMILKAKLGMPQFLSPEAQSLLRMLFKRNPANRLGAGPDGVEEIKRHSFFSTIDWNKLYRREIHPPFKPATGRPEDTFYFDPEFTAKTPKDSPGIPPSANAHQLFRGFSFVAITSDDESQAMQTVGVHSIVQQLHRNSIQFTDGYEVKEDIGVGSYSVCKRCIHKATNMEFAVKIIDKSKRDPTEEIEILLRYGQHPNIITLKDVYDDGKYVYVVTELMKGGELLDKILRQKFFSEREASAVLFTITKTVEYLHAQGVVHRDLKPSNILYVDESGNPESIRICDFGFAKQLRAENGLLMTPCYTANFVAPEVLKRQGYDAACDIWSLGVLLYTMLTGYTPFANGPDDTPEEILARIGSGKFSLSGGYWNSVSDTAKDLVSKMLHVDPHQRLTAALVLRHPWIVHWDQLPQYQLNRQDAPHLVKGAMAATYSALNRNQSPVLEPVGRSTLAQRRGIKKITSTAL
Sequence of Serine/threonine-protein kinase PLK1 (Homo sapiens) (P53350 whole entry): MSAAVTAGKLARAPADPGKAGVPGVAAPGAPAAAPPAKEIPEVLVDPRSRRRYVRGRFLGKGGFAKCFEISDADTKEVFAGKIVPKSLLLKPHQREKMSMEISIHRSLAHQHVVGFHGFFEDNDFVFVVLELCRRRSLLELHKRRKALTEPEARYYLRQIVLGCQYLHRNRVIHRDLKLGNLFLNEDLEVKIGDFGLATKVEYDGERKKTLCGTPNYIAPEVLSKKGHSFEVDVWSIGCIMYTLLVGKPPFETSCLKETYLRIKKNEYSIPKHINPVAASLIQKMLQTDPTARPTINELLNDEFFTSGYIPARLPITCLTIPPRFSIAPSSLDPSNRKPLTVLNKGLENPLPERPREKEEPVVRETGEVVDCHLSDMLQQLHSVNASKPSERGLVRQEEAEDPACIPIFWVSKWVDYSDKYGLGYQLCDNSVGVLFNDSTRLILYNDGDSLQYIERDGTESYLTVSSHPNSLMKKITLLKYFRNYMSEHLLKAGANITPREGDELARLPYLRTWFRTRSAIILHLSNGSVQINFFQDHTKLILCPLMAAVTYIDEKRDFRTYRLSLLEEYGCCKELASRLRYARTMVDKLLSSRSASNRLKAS
Sequence of STE20-like serine/threonine-protein kinase (Homo sapiens) (Q9H2G2 whole entry, looked up): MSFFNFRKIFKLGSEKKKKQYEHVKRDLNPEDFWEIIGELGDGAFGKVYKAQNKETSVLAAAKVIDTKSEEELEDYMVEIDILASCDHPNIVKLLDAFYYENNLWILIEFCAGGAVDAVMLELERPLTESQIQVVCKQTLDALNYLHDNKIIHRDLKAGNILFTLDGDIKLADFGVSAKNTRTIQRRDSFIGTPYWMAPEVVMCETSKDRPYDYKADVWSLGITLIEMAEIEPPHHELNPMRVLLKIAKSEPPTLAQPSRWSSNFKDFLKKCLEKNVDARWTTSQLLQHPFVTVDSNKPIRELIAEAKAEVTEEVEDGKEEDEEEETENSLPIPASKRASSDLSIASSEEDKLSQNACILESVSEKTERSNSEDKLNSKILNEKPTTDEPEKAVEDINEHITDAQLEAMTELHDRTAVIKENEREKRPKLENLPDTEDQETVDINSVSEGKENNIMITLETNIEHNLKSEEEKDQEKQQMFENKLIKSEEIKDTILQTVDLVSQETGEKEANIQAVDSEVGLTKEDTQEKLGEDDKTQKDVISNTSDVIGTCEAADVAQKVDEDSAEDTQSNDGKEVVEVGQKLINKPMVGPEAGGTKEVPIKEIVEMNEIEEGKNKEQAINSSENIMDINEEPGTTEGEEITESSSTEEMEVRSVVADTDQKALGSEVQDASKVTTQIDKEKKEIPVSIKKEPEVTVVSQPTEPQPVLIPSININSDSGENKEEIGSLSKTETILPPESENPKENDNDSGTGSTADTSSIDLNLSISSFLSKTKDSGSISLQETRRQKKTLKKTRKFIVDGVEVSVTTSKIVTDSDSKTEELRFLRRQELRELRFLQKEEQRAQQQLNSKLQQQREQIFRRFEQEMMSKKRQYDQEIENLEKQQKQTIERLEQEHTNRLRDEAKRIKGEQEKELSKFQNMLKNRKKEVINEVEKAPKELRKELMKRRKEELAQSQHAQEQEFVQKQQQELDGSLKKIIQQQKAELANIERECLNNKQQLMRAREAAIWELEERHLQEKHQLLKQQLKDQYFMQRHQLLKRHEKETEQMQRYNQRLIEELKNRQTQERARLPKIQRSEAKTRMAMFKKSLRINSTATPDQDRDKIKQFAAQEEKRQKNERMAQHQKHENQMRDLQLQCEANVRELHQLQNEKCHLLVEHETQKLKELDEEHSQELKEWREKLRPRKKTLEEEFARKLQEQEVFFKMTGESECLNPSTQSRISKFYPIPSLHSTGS
Sequence of Myosin light chain kinase (Homo sapiens) (Q32MK0 whole entry): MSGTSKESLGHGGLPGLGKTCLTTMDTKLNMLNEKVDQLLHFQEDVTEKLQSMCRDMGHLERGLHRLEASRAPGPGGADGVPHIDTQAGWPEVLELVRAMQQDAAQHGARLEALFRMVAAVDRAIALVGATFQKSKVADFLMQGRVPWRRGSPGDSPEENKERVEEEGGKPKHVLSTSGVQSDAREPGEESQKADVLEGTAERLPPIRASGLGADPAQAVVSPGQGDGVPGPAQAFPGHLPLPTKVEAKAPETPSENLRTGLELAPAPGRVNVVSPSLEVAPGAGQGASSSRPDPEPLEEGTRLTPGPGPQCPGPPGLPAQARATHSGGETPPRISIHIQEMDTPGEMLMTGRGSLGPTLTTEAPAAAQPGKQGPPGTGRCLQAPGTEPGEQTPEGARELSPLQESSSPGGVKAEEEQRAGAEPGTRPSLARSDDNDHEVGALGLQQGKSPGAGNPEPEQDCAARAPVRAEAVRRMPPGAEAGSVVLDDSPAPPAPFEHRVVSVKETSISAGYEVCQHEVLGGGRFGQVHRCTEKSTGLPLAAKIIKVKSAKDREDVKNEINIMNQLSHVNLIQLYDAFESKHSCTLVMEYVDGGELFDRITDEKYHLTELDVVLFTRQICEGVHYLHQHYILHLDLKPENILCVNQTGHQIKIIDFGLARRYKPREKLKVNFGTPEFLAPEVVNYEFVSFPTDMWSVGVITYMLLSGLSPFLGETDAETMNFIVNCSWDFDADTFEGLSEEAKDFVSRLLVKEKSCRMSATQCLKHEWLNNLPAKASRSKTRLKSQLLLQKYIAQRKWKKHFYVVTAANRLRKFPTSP
Sequence of Calcium/calmodulin-dependent protein kinase type 1B (Homo sapiens) (Q6P2M8 whole entry): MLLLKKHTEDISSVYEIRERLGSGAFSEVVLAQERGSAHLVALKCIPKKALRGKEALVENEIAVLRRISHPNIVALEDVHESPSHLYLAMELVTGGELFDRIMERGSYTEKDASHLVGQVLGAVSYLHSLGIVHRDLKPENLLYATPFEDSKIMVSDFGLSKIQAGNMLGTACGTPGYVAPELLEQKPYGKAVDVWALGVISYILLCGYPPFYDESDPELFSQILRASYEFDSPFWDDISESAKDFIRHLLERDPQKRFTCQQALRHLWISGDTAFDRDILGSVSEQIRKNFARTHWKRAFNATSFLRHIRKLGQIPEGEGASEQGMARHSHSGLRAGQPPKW

C[C@@H](c1cccc(C#N)c1)n1cc(Cl)cc(C(N)=O)c1=N [(S)-9s]
residual activity [1]: 98%
residual activity [2]: 100%
residual activity [3]: 75%
residual activity [4]: 83%
residual activity [5]: 96%
residual activity [6]: 94%
residual activity [7]: 88%
residual activity [8]: 84%
residual activity [9]: 88%
residual activity [10]: 81%
residual activity [11]: 82%
residual activity [12]: 100%
residual activity [13]: 91%
residual activity [14]: 98%
residual activity [15]: 96%
residual activity [16]: 100%
residual activity [17]: 37%
residual activity [18]: 96%
residual activity [19]: 100%
residual activity [20]: 87%
residual activity [21]: 96%
residual activity [22]: 97%
residual activity [23]: 73%
residual activity [24]: 80%
residual activity [25]: 75%
residual activity [26]: 100%
residual activity [27]: 90%
residual activity [28]: 99%
residual activity [29]: 99%
residual activity [30]: 67%
residual activity [31]: 100%
residual activity [32]: 100%
residual activity [33]: 85%
residual activity [34]: 75%
residual activity [35]: 91%
residual activity [36]: 97%
residual activity [37]: 98%
residual activity [38]: 76%
residual activity [39]: 84%
residual activity [40]: 76%
residual activity [41]: 0%
residual activity [42]: 97%
residual activity [43]: 95%
residual activity [44]: 83%
residual activity [45]: 100%

C[C@H](c1cccc(C#N)c1)n1cc(Cl)cc(C(N)=O)c1=N [(R)-9s]
residual activity [1]: 94%
residual activity [2]: 97%
residual activity [3]: 64%
residual activity [4]: 75%
residual activity [5]: 91%
residual activity [6]: 95%
residual activity [7]: 100%
residual activity [8]: 91%
residual activity [9]: 89%
residual activity [10]: 98%
residual activity [11]: 87%
residual activity [12]: 100%
residual activity [13]: 92%
residual activity [14]: 81%
residual activity [15]: 88%
residual activity [16]: 100%
residual activity [17]: 63%
residual activity [18]: 89%
residual activity [19]: 100%
residual activity [20]: 100%
residual activity [21]: 84%
residual activity [22]: 100%
residual activity [23]: 52%
residual activity [24]: 75%
residual activity [25]: 65%
residual activity [26]: 100%
residual activity [27]: 65%
residual activity [28]: 100%
residual activity [29]: 88%
residual activity [30]: 43%
residual activity [31]: 100%
residual activity [32]: 97%
residual activity [33]: 88%
residual activity [34]: 67%
residual activity [35]: 84%
residual activity [36]: 100%
residual activity [37]: 89%
residual activity [38]: 85%
residual activity [39]: 82%
residual activity [40]: 69%
residual activity [41]: 96%
residual activity [42]: 96%
residual activity [43]: 89%
residual activity [44]: 74%
residual activity [45]: 94%
